{"source": "ChEMBL document CHEMBL1127074", "about": "“Novel hypotensive agents from Verbesina caracasana. 2. Synthesis and pharmacology of caracasanamide” (1993)", "key": {"Rattus norvegicus [1]": {"system": "Rattus norvegicus", "assay": "Tested for the change in systolic blood pressure administered at 25 ug/kg intravenously in anesthetized rats", "assay_type": "functional, Artery"}, "Rattus norvegicus [2]": {"system": "Rattus norvegicus", "assay": "Tested for change in heart rate administered at 25 uM/kg iv in anesthetized rats", "assay_type": "functional"}, "Rattus norvegicus [3]": {"system": "Rattus norvegicus", "assay": "Maximum rate of rise of the left ventricular isovolumetric pressure administered at 25 uM/kg iv in anesthetized rats", "assay_type": "functional, Heart left ventricle"}, "Rattus norvegicus [4]": {"system": "Rattus norvegicus", "assay": "Tested for the change in diastolic blood pressure administered at 25 ug/kg intravenously in anesthetized rats", "assay_type": "functional, Artery"}, "Rattus norvegicus [5]": {"system": "Rattus norvegicus", "assay": "Maximum rate of rise of the left ventricular isovolumetric pressure administered at 12 uM/kg iv in anesthetized rats", "assay_type": "functional, Heart left ventricle"}, "Rattus norvegicus [6]": {"system": "Rattus norvegicus", "assay": "Tested for the change in diastolic blood pressure administered at 12 ug/kg intravenously in anesthetized rats", "assay_type": "functional, Artery"}, "Rattus norvegicus [7]": {"system": "Rattus norvegicus", "assay": "Tested for change in heart rate administered at 12 uM/kg iv in anesthetized rats", "assay_type": "functional"}, "Rattus norvegicus [8]": {"system": "Rattus norvegicus", "assay": "Tested for the change in systolic blood pressure administered at 12 ug/kg intravenously in anesthetized rats", "assay_type": "functional, Artery"}, "Rattus norvegicus [9]": {"system": "Rattus norvegicus", "assay": "Tested for change in heart rate administered at 5 uM/kg iv in anesthetized rats", "assay_type": "functional"}, "Rattus norvegicus [10]": {"system": "Rattus norvegicus", "assay": "Maximum rate of rise of the left ventricular isovolumetric pressure administered at 5 uM/kg iv in anesthetized rats", "assay_type": "functional, Heart left ventricle"}, "Rattus norvegicus [11]": {"system": "Rattus norvegicus", "assay": "Tested for the change in diastolic blood pressure administered at 5 ug/kg intravenously in anesthetized rats", "assay_type": "functional, Artery"}, "Rattus norvegicus [12]": {"system": "Rattus norvegicus", "assay": "Tested for the change in systolic blood pressure administered at 5 ug/kg intravenously in anesthetized rats", "assay_type": "functional, Artery"}, "Rattus norvegicus [13]": {"system": "Rattus norvegicus", "assay": "Tested for change in heart rate administered at 8 uM/kg iv in anesthetized rats", "assay_type": "functional"}, "Rattus norvegicus [14]": {"system": "Rattus norvegicus", "assay": "Tested for the change in systolic blood pressure administered at 8 ug/kg intravenously in anesthetized rats", "assay_type": "functional, Artery"}, "Rattus norvegicus [15]": {"system": "Rattus norvegicus", "assay": "Maximum rate of rise of the left ventricular isovolumetric pressure administered at 8 uM/kg iv in anesthetized rats", "assay_type": "functional, Heart left ventricle"}, "Rattus norvegicus [16]": {"system": "Rattus norvegicus", "assay": "Tested for the change in diastolic blood pressure administered at 8 ug/kg intravenously in anesthetized rats", "assay_type": "functional, Artery"}}, "data": [{"smiles": "N=C(N)NCCN1CCCCCCC1", "note": "[GUANETHIDINE]", "values": [{"measurement": "Blood pressure", "setting": "Rattus norvegicus [1]", "result": -27, "unit": "mmHg"}, {"measurement": "Heart rate", "setting": "Rattus norvegicus [2]", "result": -18, "unit": "beats min-1"}, {"measurement": "dp/dt", "setting": "Rattus norvegicus [3]", "result": -863, "unit": "mmHg s-1"}, {"measurement": "Blood pressure", "setting": "Rattus norvegicus [4]", "result": -19, "unit": "mmHg"}]}, {"smiles": "C[N+](C)(C)CCCCCC[N+](C)(C)C.[Cl-].[Cl-]", "note": "[HEXAMETHONIUM CHLORIDE]", "values": [{"measurement": "dp/dt", "setting": "Rattus norvegicus [5]", "result": -4040, "unit": "mmHg s-1"}, {"measurement": "Blood pressure", "setting": "Rattus norvegicus [6]", "result": -34, "unit": "mmHg"}, {"measurement": "Heart rate", "setting": "Rattus norvegicus [7]", "result": -48, "unit": "beats min-1"}, {"measurement": "Blood pressure", "setting": "Rattus norvegicus [8]", "result": -44, "unit": "mmHg"}]}, {"smiles": "COc1ccc(Cc2nccc3cc(OC)c(OC)cc23)cc1OC", "note": "[PAPAVERINE]", "values": [{"measurement": "Heart rate", "setting": "Rattus norvegicus [9]", "result": -21, "unit": "beats min-1"}, {"measurement": "dp/dt", "setting": "Rattus norvegicus [10]", "result": -604, "unit": "mmHg s-1"}, {"measurement": "Blood pressure", "setting": "Rattus norvegicus [11]", "result": -18, "unit": "mmHg"}, {"measurement": "Blood pressure", "setting": "Rattus norvegicus [12]", "result": -23, "unit": "mmHg"}]}, {"smiles": "COC(=O)[C@H]1[C@H]2C[C@@H]3c4[nH]c5cc(OC)ccc5c4CCN3C[C@H]2C[C@@H](OC(=O)c2cc(OC)c(OC)c(OC)c2)[C@@H]1OC", "note": "[RESERPINE]", "values": [{"measurement": "Heart rate", "setting": "Rattus norvegicus [13]", "result": -47, "unit": "beats min-1"}, {"measurement": "Blood pressure", "setting": "Rattus norvegicus [14]", "result": -31, "unit": "mmHg"}, {"measurement": "dp/dt", "setting": "Rattus norvegicus [15]", "result": -1580, "unit": "mmHg s-1"}, {"measurement": "Blood pressure", "setting": "Rattus norvegicus [16]", "result": -24, "unit": "mmHg"}]}]}
